Earlier results in US11318093B2, “Dental topical anesthetic gel” (Pac-Dent, Inc., priority 2019, dated 2022).

What was measured:
[1] = test system: MCP-2 chemokine and other proinflammatory cytokines; settings: Petrosino et al. 2018; in vitro ACD model; inhibition of MCP-2 chemokine and proinflammatory cytokine production
[2] = in vivo
[3] = test system: methicillin-resistant Staphylococcus aureus strains (MRSA); settings: European research; strains resistant to several classes of drugs
[4] = Evans 1991

Structure (SMILES): C=C(C)[C@@H]1CCC(C)=C[C@H]1c1c(O)cc(CCC)cc1O [CBDV, cannabidivarin]
- anti-inflammatory properties [1]: some anti-inflammatory benefits

Structure (SMILES): C=C(C)[C@@H]1CCC(C)=C[C@H]1c1c(O)cc(CCCCC)cc1O [CBD, cannabidiol]
- anti-inflammatory properties [1]: potent anti-inflammatory properties

Structure (SMILES): CCCCCc1cc(O)c2c(c1)OC(C)(CCC=C(C)C)C=C2 (stereo not drawn) [CBC, cannabichromene]
- anti-inflammatory properties [1]: some anti-inflammatory benefits
- pain and inflammation associated with collagen-induced osteoarthritis [2]: block pain and inflammation

Structure (SMILES): CCCCCc1cc(O)c(C/C=C(\C)CCC=C(C)C)c(O)c1 [CBG, cannabigerol]
- antibacterial agent against MRSA [3]: effective antibacterial agent
- anti-inflammatory properties [1]: some anti-inflammatory benefits

Structure (SMILES): CCCCCc1cc(O)c2c(c1)OC(C)(C)[C@@H]1CCC(C)=C[C@@H]21 [THC, tetrahydrocannabinol]
- anti-inflammatory potency relative to aspirin [4]: twenty times that of aspirin
- anti-inflammatory potency relative to hydrocortisone [4]: twice that of hydrocortisone
- cyclooxygenase (COX) inhibition (cyclooxygenase (COX)): without any cyclooxygenase (COX) inhibition
